“Also recorded” adds a separate entry of the source.
Experiments:
dissociated human islets = experiment: Insulin secretion from dissociated human islets, insulin ELISA; format: cell-based
Protocol: Forskolin is included as a positive control.
Human islets were obtained through the Integrated Islet Distribution Program. Islets were maintained and dissociated in 96-well format as described (Walpita et al., J Biomol Screen 17: 509-518 2012). To test compounds for their effects on insulin secretion, the dissociated islets were washed gently in KRB and preincubated for 1 hr at 37° C. in KRB with 2.8 mM glucose. The cells were then washed twice with zero-glucose KRB and placed in 100 μl of fresh KRB with varied glucose concentrations plus compounds. After a 1 hr incubation at 37° C., the supernatant was removed, and insulin concentration was measured by ELISA (Mercodia) according to the manufacturer's instructions.

cAMP = cAMP HTRF assay (Cisbio); format: cell-based; conditions: HTRF competition assay; increase in cAMP seen as decrease in signal
Text: FIG. 9 depicts the quantification of cAMP activity in cells treated with the indicated compound in a HTRF assay from Cisbio.
(§1) Further investigation into Compound 8 included measuring levels of the secondary messengers cAMP (FIG. 9) and IP-1 (not shown) in treated cells, as compounds that increase these secondary messengers are known to augment insulin secretion, though often in ways that are not beta-cell specific.
CellTiter-Glo (Promega) and the cAMP Dynamic-2 HTRF assay (Cisbio) were used according to the manufacturers' instructions. Luciferase secretion and CellTiter-Glo experiments were performed using a 1 hr incubation with compound, whereas the cAMP assay was performed using a 30 min incubation. Secretion experiments were run in KRB buffer; all other experiments were run in standard INS-1E medium.

IP-1 = IP-1 secondary messenger level in treated cells; format: cell-based; conditions: treated cells (data not shown)
Text: as §1

pancreatic glucokinase = molecular target: T1, pancreatic glucokinase (Homo sapiens, UniProt P35557); experiment: Glucokinase activation assay (ATP level); format: biochemical; conditions: ATP level readout; GK-A positive control
T1 sequence (P35557 1-465): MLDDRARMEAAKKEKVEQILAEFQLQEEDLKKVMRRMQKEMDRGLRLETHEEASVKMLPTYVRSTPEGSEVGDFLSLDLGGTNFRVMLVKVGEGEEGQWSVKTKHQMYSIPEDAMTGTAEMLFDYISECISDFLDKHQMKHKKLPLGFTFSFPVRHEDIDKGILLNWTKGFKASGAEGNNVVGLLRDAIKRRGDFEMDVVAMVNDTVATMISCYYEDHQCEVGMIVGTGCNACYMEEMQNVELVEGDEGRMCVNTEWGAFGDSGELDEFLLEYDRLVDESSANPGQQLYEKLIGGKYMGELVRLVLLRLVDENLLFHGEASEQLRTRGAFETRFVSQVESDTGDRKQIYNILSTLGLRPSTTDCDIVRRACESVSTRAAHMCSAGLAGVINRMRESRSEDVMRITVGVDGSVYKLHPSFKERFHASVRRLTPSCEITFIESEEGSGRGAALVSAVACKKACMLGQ
Text: FIG. 11 depicts the lack of effect of Compound 8 on glucokinase activity in cells treated with the indicated compounds. The assay is based on the measurement of ATP level. In presence of GK we observe a reduction of level of ATP with respect to the negative control (DMSO).
To rule out the possibility of Compound 8 acting as a glucokinase agonist, another well-established mechanism of augmenting insulin secretion, the compound was subjected to a glucokinase activation assay (FIG. 11).

Microsome t1/2, human = format: in vitro ADME; conditions: Human microsomes
Protocol: (§2) The pharmacokinetic activity profile of Compound 8 was assessed by various standard in vitro measurements. Measurements were performed on human, mouse (CD-1) and rat (SD) microsomes to determine the t1/2, the plasma protein binding (“PPB”) and the plasma stability (“PS”).

Microsome t1/2, mouse = format: in vitro ADME; conditions: Mouse (CD-1) microsomes
Protocol: as §2

Microsome t1/2, rat = format: in vitro ADME; conditions: Rat (SD) microsomes
Protocol: as §2

Plasma stability, human = format: in vitro ADME
Protocol: (§3) Measurements were performed on human, mouse (CD-1) and rat (SD) microsomes to determine the t1/2, the plasma protein binding (“PPB”) and the plasma stability (“PS”).

Plasma stability, mouse = format: in vitro ADME
Protocol: as §3

C57B6/J mice = experiment: In vivo efficacy, glucose tolerance test; parameters: species or system mouse; conditions: 2 mg/kg tail vein injection, compared to control (vehicle)
Protocol: Three-month-old male C57B6/J mice of body weight ranging from 20 to 25 g were housed in plastic polycarbonate cages. The animals were maintained at 25° C. with a 12-hour dark, 12-hour light schedule with food and water available ad libitum.
After two weeks of adaptation, the animals were randomly divided into two treatment groups (vehicle and Compound 8 in vehicle) with 5 mice per group. Mice were fasted for 16 hours (overnight) and basal blood glucose level was measured by tail vein nick using the AlphaTRAK 2 glucometer. Animals were given Compound 8 (2 mg/kg body weight) in vehicle or vehicle alone (7.5% NMP, 7.5% Solutol HS-15, 85% normal saline) by tail vein injection. Glucose tolerance tests (GTT) were performed 10 minutes after injection. Animals were given glucose at a dose of 1 g/kg body weight by intraperitoneal injection. Blood glucose was measured using the glucometer immediately before glucose injection, and at 15, 30, 60, and 120 minutes after injection (FIGS. 19A and 19C). At the 0, 15, and 30 minute time points, blood samples for insulin measurements were collected into EDTA-coated tubes and centrifuged at 9000 rpm to separate plasma, which was then stored at −80° C. until analysis. Insulin levels in plasma were analyzed using the ultra-sensitive mouse insulin ELISA kit (Crystal Chem) (FIGS. 19B and 19D). […]

Question: What does the source list for `Cc1cccc(NC(=O)c2ccc(OCc3c(C)noc3C)cc2)c1C` [Compound 8]?
Answer: insulin secretion, human islets from nondiabetic donors (dissociated human islets; normal donors): significant increase in glucose-dependent insulin secretion; also recorded: dose-dependent effect; insulin secretion, human islets from type 2 diabetic donors (dissociated human islets; type 2 diabetes donors): significant increase in glucose-dependent insulin secretion; also recorded: increases insulin secretion; cAMP level (cAMP): did not increase levels; IP-1 level (IP-1): did not increase levels; glucokinase activation (pancreatic glucokinase): did not show any significant activation effect; also recorded: no change in assay signal; half-life (Microsome t1/2, human): 19.3 h; half-life (Microsome t1/2, mouse): 4.6 h; half-life (Microsome t1/2, rat): 3.62 h; PS (Plasma stability, human): 106.2 % remaining; PS (Plasma stability, mouse): 96.0 % remaining; glucose concentration area under the curve (AUC) (C57B6/J mice; GTT 1 g/kg glucose i.p.): decreased; insulinogenic index (C57B6/J mice; GTT): increase

Source: patent US11555031B2, “Compounds and methods for regulating insulin secretion” (The Broad Institute, Inc., priority 2017, dated 2023)
